According to ChEMBL document CHEMBL4800730 (2021):

Tests used:
[1] = target: RAC-alpha serine/threonine-protein kinase (Homo sapiens, UniProt P31749); experiment: Homogeneous Time Resolved Fluorescence (HTRF) assay (AKT1)
[2] = NanoBRET assay (AKT1); conditions: Homo sapiens
[3] = NanoBRET assay (AKT2); conditions: Homo sapiens
[4] = NanoBRET assay (AKT3); conditions: Homo sapiens
ZR-75-1 = experiment: CellTiter-Glo luminescent cell viability assay (CTG) with ZR-75-1 cells; format: functional, cell-based; conditions: Homo sapiens
AN3-CA = experiment: CellTiter-Glo luminescent cell viability assay (CTG) with AN3-CA cells; format: functional, cell-based; conditions: Homo sapiens

Sequence of RAC-alpha serine/threonine-protein kinase (P31749 whole entry): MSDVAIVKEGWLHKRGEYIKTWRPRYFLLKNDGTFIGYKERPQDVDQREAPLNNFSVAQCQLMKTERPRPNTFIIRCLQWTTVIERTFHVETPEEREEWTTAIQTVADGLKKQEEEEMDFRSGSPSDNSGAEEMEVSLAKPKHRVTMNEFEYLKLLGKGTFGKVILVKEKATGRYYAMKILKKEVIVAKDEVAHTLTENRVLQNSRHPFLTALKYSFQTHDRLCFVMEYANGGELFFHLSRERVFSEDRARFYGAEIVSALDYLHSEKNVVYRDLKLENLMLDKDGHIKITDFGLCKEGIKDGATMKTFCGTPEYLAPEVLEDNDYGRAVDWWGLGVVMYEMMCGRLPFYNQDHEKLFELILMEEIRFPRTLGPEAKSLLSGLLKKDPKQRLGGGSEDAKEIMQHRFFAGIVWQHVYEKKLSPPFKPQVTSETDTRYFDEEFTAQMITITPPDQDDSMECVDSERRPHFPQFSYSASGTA

## C=CC(=O)Nc1ccc2[nH]c(=O)n(C3CCN(Cc4ccc(-c5ccc6c(c5)NC(=O)CO6)cc4)CC3)c2c1 [RL2578]
[1]
  IC50: 9.2 µM (not active)
[2]
  EC50: 3.5 µM (not active)
  IC50: 1.9 µM (not active)
[3]
  EC50: 4.8 µM (not active)
  IC50: 8.3 µM (not active)
[4]
  EC50: 9.3 µM (not active)
  IC50: 18 µM (not active)
ZR-75-1
  EC50: 4.2 µM (not active)
AN3-CA
  EC50: 18 µM (not active)
